# Data taken from patent publication US6355799B1, “Substituted benzene compounds, process for their preparation, and herbicidal and defoliant compositions containing them” (ISK Americas Incorporated, priority 1997, dated 2002).
# What was measured:
# Type in all cases: in vivo
# [1] = test system: redroot pigweed (Amaranthus retroflexus, AMARE); experiment: Pre-emerge test, greenhouse herbicide activity screening; conditions: rated 14 days after application, 0 = no damage, 100 = complete death
# Method in brief: (§1)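 Plants grown in 10 cm pots of sandy loam mix received acetone-dissolved compounds through a moving flat-fan nozzle. Doses ranged from 15 to 1000 g ai/ha. Pre-emerge pots were seeded one day earlier, post-emerge pots 8–21 days earlier. Fourteen days on, each pot was graded 0–100 for damage.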
# [2] = test system: barnyardgrass (Echinochloa crus-galli, ECHCG); experiment: as above; conditions: rated 14 days after application, 0 = no damage, 100 = complete death
# Method in brief: (§2)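 Visual ratings on a 0-100 scale (0 no damage, 100 all plants dead) were taken at 14 days after treatment. Rates of 15-1000 g ai/ha in acetone, 187 l/ha, were sprayed onto soil one day after planting (pre-emerge) or onto 2-3 leaf plants with 0.25% v/v surfactant (post-emerge).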
# [3] = test system: green foxtail (Setaria viridis, SETVI); experiment: as above; conditions: rated 14 days after application, 0 = no damage, 100 = complete death
# Method in brief: as §2
# [4] = test system: ivyleaf morningglory (Ipomoea hederacea, IPOHE); experiment: as above; conditions: rated 14 days after application, 0 = no damage, 100 = complete death
# Method in brief: as §2
# [5] = test system: johnsongrass (Sorghum halepense, SORHA); experiment: as above; conditions: rated 14 days after application, 0 = no damage, 100 = complete death
# Method in brief: as §2
# [6] = test system: lambsquarters (Chenopodium album, CHEAL); experiment: as above; conditions: rated 14 days after application, 0 = no damage, 100 = complete death
# Method in brief: as §2
# [7] = test system: large crabgrass (Digitaria sanguinalis, DIGSA); experiment: as above; conditions: rated 14 days after application, 0 = no damage, 100 = complete death
# Method in brief: as §2
# [8] = test system: sicklepod (Cassia obtusifolia, CASOB); experiment: as above; conditions: rated 14 days after application, 0 = no damage, 100 = complete death
# Method in brief: as §2
# [9] = test system: velvetleaf (Abutilon theophrasti, ABUTH); experiment: as above; conditions: rated 14 days after application, 0 = no damage, 100 = complete death
# Method in brief: as §2
# [10] = test system: field corn (Zea mays L., var. Dekalb 535, CORN); experiment: Pre-emerge test, crop safety; conditions: rated 14 days after application, 0 = no damage, 100 = complete death
# Method in brief: as §1
# [11] = test system: upland rice (Oryza sp., var. Tebonnet, RICE); experiment: Pre-emerge test, crop safety; conditions: rated 14 days after application, 0 = no damage, 100 = complete death
# Method in brief: as §1
# [12] = test system: barnyardgrass (Echinochloa crus-galli, ECHCG); experiment: Post-emerge test, greenhouse herbicide activity screening; conditions: post-emerge, 14 days after application, rating scale 0-100
# Method in brief: (§3)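 Rating: 0–100 visual injury, 14 DAA. Application: acetone, 187 l/ha, 15–1000 g ai/ha, flat-fan track sprayer with nozzle 40–45 cm above soil or canopy. Post-emerge runs used 0.25% v/v surfactant on 2–3 leaf plants.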
# [13] = test system: common ragweed (Ambrosia artemisizfolia L., AMBEL); experiment: as above; conditions: post-emerge, 14 days after application, rating scale 0-100
# Method in brief: as §3
# [14] = test system: green foxtail (Setaria viridis, SETVI); experiment: as above; conditions: post-emerge, 14 days after application, rating scale 0-100
# Method in brief: as §3
# [15] = test system: ivyleaf morningglory (Ipomoea hederacea, IPOHE); experiment: as above; conditions: post-emerge, 14 days after application, rating scale 0-100
# Method in brief: as §3
# [16] = test system: johnsongrass (Sorghum halepense, SORHA); experiment: as above; conditions: post-emerge, 14 days after application, rating scale 0-100
# Method in brief: as §3
# [17] = test system: lambsquarters (Chenopodium album, CHEAL); experiment: as above; conditions: post-emerge, 14 days after application, rating scale 0-100
# Method in brief: as §3
# [18] = test system: large crabgrass (Digitaria sanguinalis, DIGSA); experiment: as above; conditions: post-emerge, 14 days after application, rating scale 0-100
# Method in brief: as §3
# [19] = test system: redroot pigweed (Amaranthus retroflexus, AMARE); experiment: as above; conditions: post-emerge, 14 days after application, rating scale 0-100
# Method in brief: as §3
# [20] = test system: sicklepod (Cassia obtusifolia, CASOB); experiment: as above; conditions: post-emerge, 14 days after application, rating scale 0-100
# Method in brief: as §3
# [21] = test system: velvetleaf (Abutilon theophrasti, ABUTH); experiment: as above; conditions: post-emerge, 14 days after application, rating scale 0-100
# Method in brief: as §3
# [22] = test system: field corn (Zea mays L., var. Dekalb 535, CORN); experiment: Post-emerge test, crop safety; conditions: post-emerge, 14 days after application, rating scale 0-100
# Method in brief: as §2
# [23] = test system: upland rice (Oryza sp., var. Tebonnet, RICE); experiment: Post-emerge test, crop safety; conditions: post-emerge, 14 days after application, rating scale 0-100
# Method in brief: as §2
smiles,measurement,setting,value
COc1c(Cl)cc(F)c(-n2c(=O)cc(C(F)(F)F)n(C)c2=O)c1NC(=O)c1ccc2c(c1)OCO2 [2-73],"Pre-emerge Herbicidal Activity, phytotoxicity rating (0-100), AMARE",[1]; 63 g ai/ha,100
same,"Pre-emerge Herbicidal Activity, phytotoxicity rating (0-100), AMARE",[1]; 250 g ai/ha,100
same,"Pre-emerge Herbicidal Activity, phytotoxicity rating (0-100), ECHCG",[2]; 63 g ai/ha,90
same,"Pre-emerge Herbicidal Activity, phytotoxicity rating (0-100), ECHCG",[2]; 250 g ai/ha,100
same,"Pre-emerge Herbicidal Activity, phytotoxicity rating (0-100), SETVI",[3]; 63 g ai/ha,100
same,"Pre-emerge Herbicidal Activity, phytotoxicity rating (0-100), SETVI",[3]; 250 g ai/ha,100
same,"Pre-emerge Herbicidal Activity, phytotoxicity rating (0-100), IPOHE",[4]; 63 g ai/ha,90
same,"Pre-emerge Herbicidal Activity, phytotoxicity rating (0-100), IPOHE",[4]; 250 g ai/ha,100
same,"Pre-emerge Herbicidal Activity, phytotoxicity rating (0-100), SORHA",[5]; 63 g ai/ha,75
same,"Pre-emerge Herbicidal Activity, phytotoxicity rating (0-100), SORHA",[5]; 250 g ai/ha,100
same,"Pre-emerge Herbicidal Activity, phytotoxicity rating (0-100), CHEAL",[6]; 63 g ai/ha,100
same,"Pre-emerge Herbicidal Activity, phytotoxicity rating (0-100), CHEAL",[6]; 250 g ai/ha,100
same,"Pre-emerge Herbicidal Activity, phytotoxicity rating (0-100), DIGSA",[7]; 63 g ai/ha,100
same,"Pre-emerge Herbicidal Activity, phytotoxicity rating (0-100), DIGSA",[7]; 250 g ai/ha,100
same,"Pre-emerge Herbicidal Activity, phytotoxicity rating (0-100), CASOB",[8]; 63 g ai/ha,100
same,"Pre-emerge Herbicidal Activity, phytotoxicity rating (0-100), CASOB",[8]; 250 g ai/ha,100
same,"Pre-emerge Herbicidal Activity, phytotoxicity rating (0-100), ABUTH",[9]; 63 g ai/ha,100
same,"Pre-emerge Herbicidal Activity, phytotoxicity rating (0-100), ABUTH",[9]; 250 g ai/ha,100
same,"Pre-emerge phytotoxicity rating (0-100), crop damage, CORN",[10]; 63 g ai/ha,50
same,"Pre-emerge phytotoxicity rating (0-100), crop damage, CORN",[10]; 250 g ai/ha,95
same,"Pre-emerge phytotoxicity rating (0-100), crop damage, RICE",[11]; 63 g ai/ha,80
same,"Pre-emerge phytotoxicity rating (0-100), crop damage, RICE",[11]; 250 g ai/ha,100
same,phytotoxicity rating ECHCG,[12]; 63 g ai/ha,30
same,phytotoxicity rating ECHCG,[12]; 250 g ai/ha,60
same,phytotoxicity rating AMBEL,[13]; 63 g ai/ha,100
same,phytotoxicity rating AMBEL,[13]; 250 g ai/ha,100
same,phytotoxicity rating SETVI,[14]; 63 g ai/ha,50
same,phytotoxicity rating SETVI,[14]; 250 g ai/ha,90
same,phytotoxicity rating IPOHE,[15]; 63 g ai/ha,100
same,phytotoxicity rating IPOHE,[15]; 250 g ai/ha,100
same,phytotoxicity rating SORHA,[16]; 63 g ai/ha,10
same,phytotoxicity rating SORHA,[16]; 250 g ai/ha,50
same,phytotoxicity rating CHEAL,[17]; 63 g ai/ha,70
same,phytotoxicity rating CHEAL,[17]; 250 g ai/ha,95
same,phytotoxicity rating DIGSA,[18]; 63 g ai/ha,30
same,phytotoxicity rating DIGSA,[18]; 250 g ai/ha,30
same,phytotoxicity rating AMARE,[19]; 63 g ai/ha,100
same,phytotoxicity rating AMARE,[19]; 250 g ai/ha,100
same,phytotoxicity rating CASOB,[20]; 63 g ai/ha,60
same,phytotoxicity rating CASOB,[20]; 250 g ai/ha,100
same,phytotoxicity rating ABUTH,[21]; 63 g ai/ha,100
same,phytotoxicity rating ABUTH,[21]; 250 g ai/ha,100
same,phytotoxicity rating CORN,[22]; 63 g ai/ha,25
same,phytotoxicity rating CORN,[22]; 250 g ai/ha,50
same,phytotoxicity rating RICE,[23]; 63 g ai/ha,20
same,phytotoxicity rating RICE,[23]; 250 g ai/ha,70
